The target of assay [1] is T1, recombinant human 17β-HSD2 (Homo sapiens, UniProt P37059).
T1 construct: made in house; host or cells: Sd9 (Sf9) insect cells, baculovirus (Bac to Bac Expression System)
T1 sequence (P37059 1-387): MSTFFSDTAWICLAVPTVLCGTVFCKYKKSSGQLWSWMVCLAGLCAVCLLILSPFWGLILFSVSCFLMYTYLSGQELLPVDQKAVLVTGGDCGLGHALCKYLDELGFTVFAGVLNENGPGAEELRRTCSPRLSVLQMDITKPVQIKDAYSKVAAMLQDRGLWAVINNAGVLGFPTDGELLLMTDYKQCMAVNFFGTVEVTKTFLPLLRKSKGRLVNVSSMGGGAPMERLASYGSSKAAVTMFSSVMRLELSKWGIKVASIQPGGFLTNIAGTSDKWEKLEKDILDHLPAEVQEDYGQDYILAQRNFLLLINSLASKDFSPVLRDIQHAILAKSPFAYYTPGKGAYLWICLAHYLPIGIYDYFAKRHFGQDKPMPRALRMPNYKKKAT
The experiment in a line: Inhibition of recombinant human 17β-HSD2. In kind it is biochemical. Particulars: read-out: 17β-HSD2 Inhibition % at 1 μM. The procedure: Similarly to 17β-HSD1 the Recombinant baculovirus was generated by the “Bac to Bac Expression System” (Invitrogen). Recombinant bacmid was transfected to Sd9 insect cells using “Cellfectin Reagent” (Invitrogen). 60 h later cells were harvested and supernatant were fractionated by the following protocol: • cells were dissolved into 40 ml of A-buffer (40 mM TRIS, pH8.0, 20% glycerol, 20 μM NAD, 0.4 mM PMSF, 150 mM NaCl, 0.5% dodecyl-β-maltoside+protease inhibitor cocktail) • cells were sonicated • lysate was incubated on ice for 15 min • lysate was centrifuged 5000 rpm 15 min, +4° C. • centrifugation of the supernatant 180 000 g 30 min, +4° C. • pellet was dissolved into 8 ml of A-buffer • not resuspended material was removed by centrifugation 5000 rpm 15 min, +4° C. • the clear supernatant was divided into 100 μl aliquots and were stored frozen until determination of enzymatic activity.
The amount of 17β-HSD2 was analysed by immunoblotting and total protein concentration of each extract batch was determined.
Recombinant protein (4 μg/ml) was incubated in 20 mM KH2PO4 pH 8.5 with 50 nM estradiol (including 800 000 cpm/ml of ^3H-estradiol) and 1 mM NADH for 30 min at RT, in the presence of the potential inhibitor at concentrations 1 μM or 0.1 μM. Inhibitor stock solutions were prepared in DMSO. Final concentration of DMSO was adjusted to 1% in all samples. The enzyme reaction was stopped by addition of 10% trichloroacetic acid (final concentration). Samples were centrifuged in a microtiter plate at 4000 rpm for 10 min. Supernatants were applied to reverse phase HPLC on a Waters Symmetry C18 column, equipped with a Waters Sentry Guard column. Isocratic HPLC runs were performed at RT at a flow rate of 1 ml/min in acetonitrile:water 48:52 as running solvent. Radioactivity was monitored in the eluate by a Packard Flow Scintillation Analyzer. Total radioactivity for estrone and estradiol were determined in each sample and percent conversion of estradiol to estrone was calculated according to the following formula:
(§1) [formula] Percent inhibition was calculated flowingly: % inhibition=100−% conversion

Assay [2] has as its target T2, recombinant human 17β-HSD1 (Homo sapiens, UniProt P14061).
T2 construct: made in house; host or cells: Sd9 (Sf9) insect cells, baculovirus (Bac to Bac Expression System)
T2 sequence (P14061 1-328): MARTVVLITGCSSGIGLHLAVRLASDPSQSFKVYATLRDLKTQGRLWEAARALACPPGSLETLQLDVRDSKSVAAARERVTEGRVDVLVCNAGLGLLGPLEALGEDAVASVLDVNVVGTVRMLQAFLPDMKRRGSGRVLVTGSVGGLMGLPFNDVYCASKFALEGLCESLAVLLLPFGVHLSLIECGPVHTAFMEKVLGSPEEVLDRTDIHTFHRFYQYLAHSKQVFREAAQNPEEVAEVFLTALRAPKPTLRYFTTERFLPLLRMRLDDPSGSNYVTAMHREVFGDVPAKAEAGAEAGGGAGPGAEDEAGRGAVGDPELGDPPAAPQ
The experiment in a line: Inhibition of recombinant human 17β-HSD1. In kind it is biochemical. Conditions: read-out: 17β-HDS1 Inhibition % at 1 μM. On the procedure: Recombinant baculovirus was generated by the “Bac to Bac Expression System” (Invitrogen). Recombinant bacmid was transfected to Sd9 insect cells using “Cellfectin Reagent” (Invitrogen). 60 h later cells were harvested; the microsomal fraction was isolated as described by Puranen, T. J., Poutanen, M. H., Peltoketo, H. E., Vihko, P. T. and Vihko, R. K. (1994) Site-directed mutagenesis of the putative active site of human 17 β-hydroxysteroid dehydrogenase type 1. Biochem. J. 304: 289-293. Aliquots were stored frozen until determination of enzymatic activity.
Recombinant protein (1 μg/ml) was incubated in 20 mM KH2PO4 pH 7.4 with 30 nM estrone (including 800 000 cpm/ml of ^3H-estrone) and 1 mM NADPH for 30 min at RT, in the presence of the potential inhibitor at concentrations 1 μM or 0.1 μM. Inhibitor stock solutions were prepared in DMSO. Final concentration of DMSO was adjusted to 1% in all samples. The enzyme reaction was stopped by addition of 10% trichloroacetic acid (final concentration). Samples were centrifuged in a microtiter plate at 4000 rpm for 10 min. Supernatants were applied to reverse phase HPLC on a Waters Symmetry C18 column, equipped with a Waters Sentry Guard column. Isocratic HPLC runs were performed at RT at a flow rate of 1 ml/min in acetonitrile:water 48:52 as running solvent. Radioactivity was monitored in the eluate by a Packard Flow Scintillation Analyzer. Total radioactivity for estrone and estradiol were determined in each sample and percent conversion of estrone to estradiol was calculated according to the following formula:
as §1

Where [3] appears, read: inhibitor at 1 μM, 50 nM estradiol, 1 mM NADH, 30 min at RT.
Where [4] appears, read: inhibitor at 1 μM, 30 nM estrone, 1 mM NADPH, 30 min at RT.

Like-named read-outs stand apart in the source and are kept apart here.

`Cc1cnc(NC(=O)CC[C@@H]2CC(=O)[C@@]3(C)CCC4c5ccc(OC(=O)CN(C)C)cc5CCC4C23)s1` (stereo partly drawn) [Compound 26, Dimethylamino-acetic acid (13S,15R)-13-methyl-15-[2-(5-methylthiazol-2-ylcarbamoyl)-ethyl]-17-oxo-7,8,9,11,12,13,14,15,16,17-decahydro-6H-cyclopenta[a]phenanthren-3-yl ester]: the inhibition at 1 µM in assay [1] (setting [3]) was found to be 6%; in assay [2] (setting [4]), 96%.

Consider `Cc1ccc(S(=O)(=O)Oc2ccc3c(c2)CCC2C3CC[C@]3(C)C(=O)C[C@@H](CCC(=O)Nc4ncc(C)s4)C23)cc1` (stereo partly drawn) [Compound 27, Toluene-4-sulphonic acid (13S,15R)-13-methyl-15-[2-(5-methylthiazol-2-ylcarbamoyl)-ethyl]-17-oxo-7,8,9,11,12,13,14,15,16,17-decahydro-6H-cyclopenta[a]phenanthren-3-yl ester], for which the inhibition at 1 µM was determined as 5% in assay [1] (setting [3]) and 81% in assay [2] (setting [4]).

In the case of `Cc1cnc(NC(=O)CC[C@@H]2CC(=O)[C@@]3(C)CCC4c5cc(C(C)(C)C)c(O)cc5CCC4C23)s1` (stereo partly drawn) [Compound 31, 3-((13S,15R)-2-(tert-butyl)-3-hydroxy-13-methyl-17-oxo-7,8,9,11,12,13,14,15,16,17-decahydro-6H-cyclopenta[a]phenanthren-15-yl)-N-(5-methylthiazol-2-yl)propanamide], the inhibition at 1 µM in assay [1] (setting [3]) stood at 12%; in assay [2] (setting [4]), 87%.

As for `Cc1cnc(NC(=O)CC[C@@H]2CC(=O)[C@@]3(C)CCC4c5cc(C(C)C)c(O)cc5CCC4C23)s1` (stereo partly drawn) [Compound 32, 3-((13S,15R)-3-hydroxy-2-isopropyl-13-methyl-17-oxo-7,8,9,11,12,13,14,15,16,17-decahydro-6H-cyclopenta[a]phenanthren-15-yl)-N-(5-methylthiazol-2-yl)propanamide], the inhibition at 1 µM in assay [1] (setting [3]) came out at 1%; in assay [2] (setting [4]), 84%.

As for `COc1cc2c(cc1C(C)=O)C1CC[C@]3(C)C(=O)C[C@@H](CCC(=O)Nc4ncc(C)s4)C3C1CC2` (stereo partly drawn) [Compound 33, 3-((13S,15R)-2-acetyl-3-methoxy-13-methyl-17-oxo-7,8,9,11,12,13,14,15,16,17-decahydro-6H-cyclopenta[a]phenanthren-15-yl)-N-(5-methylthiazol-2-yl)propanamide], the figures for the inhibition at 1 µM in assay [1] (setting [3]) and in assay [2] (setting [4]) were 3% and 71%, respectively.

Regarding `Cc1cnc(NC(=O)CC[C@@H]2CC(=O)[C@@]3(C)CCC4c5cc([N+](=O)[O-])c(O)cc5CCC4C23)s1` (stereo partly drawn) [Compound 34, 3-((13S,15R)-3-hydroxy-13-methyl-2-nitro-17-oxo-7,8,9,11,12,13,14,15,16,17-decahydro-6H-cyclopenta[a]phenanthren-15-yl)-N-(5-methylthiazol-2-yl)propanamide], the inhibition at 1 µM came to 10% in assay [1] (setting [3]) and 91% in assay [2] (setting [4]).

For `Cc1cnc(NC(=O)CC[C@@H]2CC(=O)[C@@]3(C)CCC4c5cc([N+](=O)[O-])c(O)c([N+](=O)[O-])c5CCC4C23)s1` (stereo partly drawn) [Compound 36, 3-((13S,15R)-3-hydroxy-13-methyl-2,4-dinitro-17-oxo-7,8,9,11,12,13,14,15,16,17-decahydro-6H-cyclopenta[a]phenanthren-15-yl)-N-(5-methylthiazol-2-yl)propanamide], the figures for the inhibition at 1 µM in assay [1] and in assay [2] were 33% and 87%, respectively.

Regarding `Cc1cnc(NC(=O)CC[C@@H]2CC(=O)[C@@]3(C)CCC4c5cc(N)c(O)cc5CCC4C23)s1` (stereo partly drawn) [Compound 37, 3-((13S,15R)-2-amino-3-hydroxy-13-methyl-17-oxo-7,8,9,11,12,13,14,15,16,17-decahydro-6H-cyclopenta[a]phenanthren-15-yl)-N-(5-methylthiazol-2-yl)propanamide], the inhibition at 1 µM in assay [1] (setting [3]) is 4%; in assay [2] (setting [4]), 88%.

Take `Cc1cnc(NC(=O)CC[C@@H]2CC(=O)[C@@]3(C)CCC4c5ccc(O)c(N)c5CCC4C23)s1` (stereo partly drawn) [Compound 38, 3-((13S,15R)-4-amino-3-hydroxy-13-methyl-17-oxo-7,8,9,11,12,13,14,15,16,17-decahydro-6H-cyclopenta[a]phenanthren-15-yl)-N-(5-methylthiazol-2-yl)propanamide]: the inhibition at 1 µM in assay [1] (setting [3]) came to 9%; in assay [2] (setting [4]), 87%.

For `Cc1cnc(NC(=O)CC[C@@H]2CC(=O)[C@@]3(C)CCC4c5ccc(OS(C)(=O)=O)c([N+](=O)[O-])c5CCC4C23)s1` (stereo partly drawn) [Compound 39, (13S,15R)-13-methyl-15-(3-((5-methylthiazol-2-yl)amino)-3-oxopropyl)-4-nitro-17-oxo-7,8,9,11,12,13,14,15,16,17-decahydro-6H-cyclopenta[a]phenanthren-3-yl methanesulfonate], the inhibition at 1 µM in assay [1] (setting [3]) turned out to be 1%; in assay [2] (setting [4]), 96%.

For the molecule `Cc1cnc(NC(=O)CC[C@@H]2CC(=O)[C@@]3(C)CCC4c5ccc(OS(C)(=O)=O)c(N)c5CCC4C23)s1` (stereo partly drawn) [Compound 40, (13S,15R)-4-amino-13-methyl-15-(3-((5-methylthiazol-2-yl)amino)-3-oxopropyl)-17-oxo-7,8,9,11,12,13,14,15,16,17-decahydro-6H-cyclopenta[a]phenanthren-3-yl methanesulfonate], the inhibition at 1 µM came out at 1% in assay [1] (setting [3]) and 75% in assay [2] (setting [4]).

For `Cc1cnc(NC(=O)CC[C@@H]2CC(=O)[C@@]3(C)CCC4c5cc(CN6CCOCC6)c(O)cc5CCC4C23)s1` (stereo partly drawn) [Compound 42, 3-((13S,15R)-3-hydroxy-13-methyl-2-(morpholinomethyl)-17-oxo-7,8,9,11,12,13,14,15,16,17-decahydro-6H-cyclopenta[a]phenanthren-15-yl)-N-(5-methylthiazol-2-yl)propanamide], the figures for the inhibition at 1 µM in assay [1] (setting [3]) and in assay [2] (setting [4]) were 0% and 90%, respectively.

In the case of `Cc1cnc(NC(=O)CC[C@@H]2CC(=O)[C@@]3(C)CCC4c5cc(CN6CCOCC6)c(O)c([N+](=O)[O-])c5CCC4C23)s1` (stereo partly drawn) [Compound 43, 3-((13S,15R)-3-hydroxy-13-methyl-2-(morpholinomethyl)-4-nitro-17-oxo-7,8,9,11,12,13,14,15,16,17-decahydro-6H-cyclopenta[a]phenanthren-15-yl)-N-(5-methylthiazol-2-yl)propanamide], the values for the inhibition at 1 µM in assay [1] (setting [3]) and in assay [2] (setting [4]) were 0% and 94%, respectively.

Usually inhibition stands for the relative decrease from the control value, in per cent.

The record behind these values is patent publication US10377791B2, “Therapeutically active estratrienthiazole derivatives as inhibitors of 17 B-hydroxysteroid dehydrogenase, type 1” (FORENDO PHARMA LTD, priority 2013, dated 2019).
